This is an account of results in patent US8778974B2, “Trisubstituted 1,2,4 triazoles” (Janssen Pharmaceutica NV, priority 2008, dated 2014).

Structures are written as SMILES. A value given as a limit tells only on which side of the number the result lay.

For this assay, the target named is T1, hα7-wt nAChR-expressing GH4Cl cells (Homo sapiens, UniProt P36544).
T1 construct: expressed in transfected cells
Nature of the assay: Patch-clamp current recording (whole-cell), potentiation of choline 1 mM response, PAM type. The class given is cell-based. Set-up: key to Pam type: Type 0 compounds minimally enhance the effect size of the current elicited by 1 mM choline.; Type 1 compounds enhance the effect size of the current elicited by 1 mM choline but minimally alter the kinetics of the receptor.; Type 2 compounds enhance the effect size of the current elicited by 1 mM choline while reducing the rate and/or the extent of desensitization.; Type 3 compounds enhance the effect size of the current elicited by 1 mM choline. When tested at higher concentrations up to 10 μM they completely inhibit desensitization, in particular a 1 mM choline application of 250 milliseconds.; Type 4 compounds allow for an initial desensitization of the receptor followed by a re-opening of the receptor during agonist application. Particulars: for EC50: according to Ex. D.2, "<5" = no top plateau reached at maximal concentration, read-out: Potency (pEC50) (converted); for Pam type: patch-clamp current recording, 1 mM choline. As for the experimental part: The compounds of the present invention are classified as type 1-4, based on qualitative kinetic properties, as determined by whole-cell voltage-clamp recordings. This classification is based on the effect of an α7 PAM compound, as described hereinbefore, on the signal elicited by an agonist application. In particular, said agonist is choline at a concentration of 1 mM. In a preferred experimental setting, said α7 PAM compound and choline are simultaneously applied to the cell, as described hereinafter. Desensitization is defined as the closure of the receptor upon activation during the application of the agonist in whole-cell voltage-clamp electrophysiology measurements seen as the reduction of the […] current after initial activation by the agonist.
The definition of the PAM types 1-4 is described hereinafter: • Type 0 compounds minimally enhance the effect size of the current elicited by 1 mM choline. • Type 1 compounds enhance the effect size of the current elicited by 1 mM choline but minimally alter the kinetics of the receptor. In particular, the rate and the extent of desensitization, elicited by the agonist, is not affected. The compound-modulated response to 1 mM choline, therefore, is a close to linear scaling of the 1 mM choline response in absence of the α7 PAM compound. • Type 2 compounds enhance the effect size of the current elicited by 1 mM choline while reducing the rate and/or the extent of desensitization. • Type 3 compounds enhance the effect size of the current elicited by 1 mM choline. […] At low-potency concentrations of the α7 PAM compound, the agonist-induced activation, which is followed by desensitization, can still be separated from the compound-induced re-opening as an initial inward current-maximum. At higher potency concentrations of the α7 PAM compound, the re-opening occurs faster than the closure due to desensitization so that the initial current-maximum disappears.
Patch-clamp Current Recording
Patch-clamp recording from mammalian cells has provided a powerful means of assessing the function of membrane-bound proteins thought to be subunits of ligand-gated ion channels. Activation of such proteins by endogenous or exogenous ligands cause opening of a pore associated with the receptor through which ions flow down their electrochemical gradient. In the case of the hα7-wt nAChR-expressing GH4Cl recombinant cell line the preferential permeability to calcium of this receptor means that calcium flows into the cell upon activation by ACh, choline and other nicotinic ligands giving rise to a calcium current. Since this receptor rapidly desensitizes in the presence of agonist it is important an application system is used which is capable of very rapid switching of solutions (<100 ms) to prevent partial or full desensitisation of receptor responses coincident with the time of agonist application. Consequently, a second convenient technique to assess the enhancement of nicotinic efficacy is patch-clamp recording from hα7-wt nAChR-expressing GH4Cl cells coupled with a rapid-application system.
• a) Assay buffers • The external recording solution consisted of 152 mM NaCl, 5 mM KCl, 1 mM MgCl2, 1 mM Calcium, 10 mM HEPES; pH 7.3. The internal recording solution consisted of 140 mM CsCl, 10 mM HEPES, 10 mM EGTA, 1 mM MgCl2, pH 7.3. • b) Patch-clamp recording was carried out using a Patch-clamp amplifier (Multiclamp 700A, Axon Instruments, Calif., USA). hα7-wt nAChR-expressing GH4Cl cells were patch-clamp in the whole cell configuration (Hamill et al, 1981) with a borosilicate glass electrode of 1.5-3 MΩ tip resistance when filled with the internal recording solution. Recordings were made on cells with membrane resistance >500 MΩ and more preferably 1GΩ and series resistance <15 MΩ with at least 60% series resistance compensation. […]

T1 sequence (P36544 23-502): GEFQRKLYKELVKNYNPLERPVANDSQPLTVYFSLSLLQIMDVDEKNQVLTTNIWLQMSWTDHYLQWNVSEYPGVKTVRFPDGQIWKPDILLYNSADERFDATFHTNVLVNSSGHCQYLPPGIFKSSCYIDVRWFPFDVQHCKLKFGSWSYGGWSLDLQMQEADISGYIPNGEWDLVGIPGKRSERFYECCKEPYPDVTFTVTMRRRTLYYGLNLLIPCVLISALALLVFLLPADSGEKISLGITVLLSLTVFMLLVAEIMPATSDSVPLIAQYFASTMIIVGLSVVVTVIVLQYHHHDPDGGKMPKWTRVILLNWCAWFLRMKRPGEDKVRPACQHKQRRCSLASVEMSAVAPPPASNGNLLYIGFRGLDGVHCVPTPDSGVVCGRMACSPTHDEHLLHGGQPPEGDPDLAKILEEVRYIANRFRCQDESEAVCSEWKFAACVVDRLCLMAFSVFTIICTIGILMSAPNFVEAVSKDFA

As to `O=C(CCc1nc(Nc2cccc(OC(F)(F)F)c2)nn1-c1cccnc1)N1CCC(O)C1` (stereo not shown) [E79], the EC50 was 1260 nM.

In the case of `CN(C)C(=O)CCc1nc(Nc2ccc(F)c(C(F)(F)F)c2)nn1-c1ccc2c(c1)OCCO2` [E77], the EC50 is 39.8 nM and the Pam type was determined as 4.

On to `CN(C)C(=O)CCc1nc(Nc2ccc(F)c(F)c2)nn1-c1ccc(OC(F)(F)F)cc1` [E66], for which the EC50 was 240 nM and the Pam type is 4.

As for `Cc1cc(-n2nc(Nc3ccc(F)c(C(F)(F)F)c3)nc2CCO)ccn1` [E16], the EC50 was 525 nM.

On to `COc1ccc(-n2nc(Nc3ccc4c(c3)OC(F)(F)O4)nc2CCC(=O)N(C)C)cc1` [E178], for which the EC50 is 36.3 nM and the Pam type amounted to 4.

As for `CCNc1cc(-n2nc(Nc3ccc(F)c(F)c3)nc2C[C@@H](O)CC)ccn1` [E136], the EC50 is 155 nM and the Pam type is given as 3.

Turning to `CNC(=O)Cc1nc(Nc2ccc(F)c(F)c2F)nn1-c1cc(C)nc(C)c1` [E209], the EC50 is 724 nM and the Pam type came to 2.

In the case of `CC[C@H](O)Cc1nc(Nc2cccc(C(F)(F)F)c2)nn1-c1ccnc(C)c1` [E204], the EC50 is 562 nM and the Pam type worked out at 0.

As to `CN(C)C(=O)CCc1nc(Nc2cccc(OC(F)(F)F)c2)nn1-c1ccncc1` [E69], the EC50 was 324 nM.

As to `CN(C)C(=O)CCc1nc(Nc2ccc(F)c(F)c2)nn1-c1ccncc1` [E67], the EC50 is 447 nM and the Pam type was found to be 4.

Regarding `CN(C)C(=O)CCc1nc(Nc2cc(F)c(F)c(Br)c2)nn1-c1ccc2c(c1)OCCO2` [E151], the EC50 was 38 nM and the Pam type amounted to 4.

Regarding `CCOC(=O)CCc1nc(Nc2cccc(OC(F)(F)F)c2)nn1-c1cccnc1` [E108], the EC50 was 1350 nM.

For `CNC(=O)CCc1nc(Nc2ccc(F)c(C(F)(F)F)c2)nn1-c1ccc2c(c1)OCCO2` [E55], the EC50 was 525 nM and the Pam type is listed as 4.

With `Cc1ncccc1-n1nc(Nc2cccc(OC(F)(F)F)c2)nc1CCC(=O)N(C)C` [E5, N,N-Dimethyl-1-(2-methyl-3-pyridinyl)-3-[[3-(trifluoromethoxy)phenyl]amino]-1H-1,2,4-triazole-5-propanamide], the EC50 is 1170 nM and the Pam type was 4.

Consider `COc1ccc(-n2nc(Nc3ccc(F)c(C(F)(F)F)c3)nc2CCC(=O)N(C)C)cc1` [E62], for which the EC50 was 30.2 nM and the Pam type turned out to be 4.

For the compound `Cc1cc(-n2nc(Nc3ccc(F)c(F)c3)nc2CC(=O)NC2CCC2)cc(C)n1` [E169], the EC50 was 295 nM and the Pam type was 2.

On to `O=C(CCc1nc(Nc2cccc(OC(F)(F)F)c2)nn1-c1cccnc1)N1CCCC1` [E78], for which the EC50 was 309 nM.

For `CNC(=O)CCc1nc(Nc2ccc(F)c(C(F)(F)F)c2)nn1-c1ccc(OC)c(OC)c1` [E46], the EC50 was 1020 nM.

As for `CC[C@H](O)Cc1nc(Nc2cc(F)cc(OC)c2)nn1-c1ccnc(C)c1` [E186, (alphaS)-alpha-ethyl-3-[(3-fluoro-5-methoxyphenyl)amino]-1-(2-methyl-4-pyridinyl)-1H-1,2,4-triazole-5-ethanol], the EC50 is 1020 nM and the Pam type is recorded as 4.

Regarding `CCOC(=O)CCc1nc(Nc2ccc(F)c(C(F)(F)F)c2)nn1-c1ccc2c(c1)OCCO2` [E115], the EC50 is 158 nM.

As for `CC[C@H](O)Cc1nc(Nc2ccc(OC)cc2)nn1-c1cc(C)nc(C)c1` [E203], the EC50 was 1350 nM and the Pam type is listed as 2.

For `CN(C)C(=O)CCc1nc(Nc2ccc(F)c(C(F)(F)F)c2)nn1-c1ccncc1` [E68], the EC50 is 105 nM.

Turning to `CC[C@H](O)Cc1nc(Nc2ccc(F)c(F)c2F)nn1-c1ccnc(C)c1` [E130, (alphaS)-alpha-ethyl-1-(2-methyl-4-pyridinyl)-3-[(2,3,4-trifluorophenyl)amino]-1H-1,2,4-triazole-5-ethanol], the EC50 is 269 nM and the Pam type is listed as 2.

For `CNC(=O)CCc1nc(Nc2ccc(F)c(F)c2)nn1-c1ccncc1` [E52], the EC50 is > 30200 nM.

Consider `CN(C)C(=O)CCc1nc(Nc2ccc3c(c2)OC(F)(F)O3)nn1-c1ccc2c(c1)OCCO2` [E176], for which the EC50 is 26.9 nM and the Pam type was 4.

For `CN(C)C(=O)CCc1nc(Nc2ccc(F)c(F)c2)nn1-c1ccc2c(c1)OCCO2` [E3, 3-[(3,4-Difluorophenyl)amino]-1-(2,3-dihydro-1,4-benzodioxin-6-yl)-N,N-dimethyl-1H-1,2,4-triazole-5-propanamide], the EC50 is 43.7 nM and the Pam type was determined as 4.

Regarding `CCNC(=O)Cc1nc(Nc2ccc3c(c2)OC(F)(F)O3)nn1-c1cc(C)ncc1C` [E163], the EC50 was 2510 nM and the Pam type was found to be 4.

In the case of `CN(C)C(=O)CCc1nc(Nc2cccc(OC(F)(F)F)c2)nn1-c1ccc2c(c1)OCCO2` [E170], the EC50 was 39.8 nM and the Pam type is on record as 4.

In the case of `CC[C@H](O)Cc1nc(Nc2cccc(Cl)c2F)nn1-c1cc(C)nc(C)c1` [E172], the EC50 is 302 nM and the Pam type is 2.

Consider `CNC(=O)CCc1nc(Nc2ccc(F)c(C(F)(F)F)c2)nn1-c1ccc(OC)cc1` [E44], for which the EC50 was 661 nM.

For the compound `Cc1cc(-n2nc(Nc3cc(F)c(F)c(F)c3)nc2CCC(=O)N(C)C)cc(C)n1` [E264], the EC50 was ~28.8 nM.

Take `CNC(=O)Cc1nc(Nc2ccc(F)c(F)c2)nn1-c1ccc2c(c1)OCCO2` [E36]: the EC50 is 1740 nM and the Pam type came out at 4.

Turning to `CC[C@H](O)Cc1nc(Nc2cc(Cl)cc(OC)c2)nn1-c1ccnc(C)c1` [E206], the EC50 was 170 nM and the Pam type was 4.

With `CN(C)C(=O)CCc1nc(Nc2cccc(OC(F)(F)F)c2)nn1-c1cccnc1` [E71], the EC50 was 617 nM and the Pam type was 4.

As for `Cc1ccc(-n2nc(Nc3ccc4c(c3)OC(F)(F)O4)nc2CCC(=O)N(C)C)cn1` [E117], the EC50 is 191 nM and the Pam type came to 4.

Regarding `CCOC(=O)CCc1nc(Nc2ccc(F)c(F)c2)nn1-c1ccc2c(c1)OCCO2` [E114], the EC50 is 151 nM.

For the compound `CNC(=O)CCc1nc(Nc2ccc(F)c(F)c2)nn1-c1ccc2c(c1)OCCO2` [E2, 3-[(3,4-Difluorophenyl)amino]-1-(2,3-dihydro-1,4-benzodioxin-6-yl)-N-methyl-1H-1,2,4-triazole-5-propanamide], the EC50 is 1020 nM and the Pam type turned out to be 3.

Take `CN(C)C(=O)CCc1nc(Nc2ccc(F)c(C(F)(F)F)c2)nn1-c1cccnc1` [E72]: the EC50 is 339 nM.

With `CC[C@H](O)Cc1nc(Nc2ccc(F)c(F)c2F)nn1-c1cc(C)nc(C)c1` [E127, (alphaS)-1-(2,6-dimethyl-4-pyridinyl)-alpha-ethyl-3-[(2,3,4-trifluorophenyl)amino]-1H-1,2,4-triazole-5-ethanol], the EC50 is 269 nM and the Pam type was found to be 2.

Take `CNC(=O)CCc1nc(Nc2ccc(F)c(F)c2)nn1-c1ccc(OC)cc1` [E43]: the EC50 is 2000 nM and the Pam type is listed as 2.
